Assay results from PubChem BioAssay AID1918946 (Molecular Pharmacology Branch, DTP, NCI, 2023).
Several values for one entry are separate records, joined by “and”; a condition that tells them apart may be missing. Equal entries are not always repeated.

Test system: 885512-296-R-J2-PDC complex spheroid viability
Assay: Anticancer human tumor 885512-296-R-J2-PDC patient-derived breast carcinoma cell line growth inhibition
Settings: for viability, T/C: stronger effect = lower value; active means viability on the fitted dose curve at most 10% of control; inactive means the rest
How it was run: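 Drug combinations with the LSD1 inhibitor iadademstat tested on tumor cells co-cultured as spheroids with endothelial cells and mesenchymal stem cells. Concentrations descended in half-log increments from clinical Cmax or 10 microM.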

[1] = curve of first compound, second compound 0.1 µM
[2] = curve of first compound, second compound 0.316 µM
[3] = curve of first compound, second compound 1 µM
[4] = curve of first compound, second compound 3.16 µM
[5] = curve of first compound, second compound 10 µM
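Further: spheroids exposed to agents for 7 days before viability read.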

Nc1ccccc1NC(=O)c1ccc(CNC(=O)OCc2cccnc2)cc1 + NC1CCC(NC2CC2c2ccccc2)CC1
0.124 µM: IC50 [4]
inactive: viability, T/C (second compound 0.1 µM, first compound 0.00949 µM) 123% | viability, T/C (second compound 0.1 µM, first compound 0.03 µM) 111% | viability, T/C (second compound 0.1 µM, first compound 0.0949 µM) 50.6% | viability, T/C (second compound 0.1 µM, first compound 0.3 µM) 25.3% | viability, T/C (second compound 0.1 µM, first compound 0.949 µM) 16.7% | viability, T/C (second compound 0.1 µM, first compound 3 µM) 7.75% | viability, T/C (second compound 0.316 µM, first compound 0.00949 µM) 115% | viability, T/C (second compound 0.316 µM, first compound 0.03 µM) 110% | viability, T/C (second compound 0.316 µM, first compound 0.0949 µM) 51.7% | viability, T/C (second compound 0.316 µM, first compound 0.3 µM) 24.6% | viability, T/C (second compound 0.316 µM, first compound 0.949 µM) 15.5% | viability, T/C (second compound 0.316 µM, first compound 3 µM) 8.27% | viability, T/C (second compound 1 µM, first compound 0.00949 µM) 116% | viability, T/C (second compound 1 µM, first compound 0.03 µM) 106% | viability, T/C (second compound 1 µM, first compound 0.0949 µM) 52.9% | viability, T/C (second compound 1 µM, first compound 0.3 µM) 28.6% | viability, T/C (second compound 1 µM, first compound 0.949 µM) 11.4% | viability, T/C (second compound 3.16 µM, first compound 0.00949 µM) 123% | viability, T/C (second compound 3.16 µM, first compound 0.03 µM) 105% | viability, T/C (second compound 3.16 µM, first compound 0.0949 µM) 54.1% | viability, T/C (second compound 3.16 µM, first compound 0.3 µM) 26.6% | viability, T/C (second compound 3.16 µM, first compound 0.949 µM) 12.5% | viability, T/C (second compound 10 µM, first compound 0.00949 µM) 107% | viability, T/C (second compound 10 µM, first compound 0.03 µM) 89.8% | viability, T/C (second compound 10 µM, first compound 0.0949 µM) 46.5% | viability, T/C (second compound 10 µM, first compound 0.3 µM) 20.5%
0.123 µM: IC50 [3]
0.108 µM: IC50 [2]
active: viability, T/C (second compound 1 µM, first compound 3 µM) 6.94% | viability, T/C (second compound 3.16 µM, first compound 3 µM) 4.09% | viability, T/C (second compound 10 µM, first compound 0.949 µM) 9.82% | viability, T/C (second compound 10 µM, first compound 3 µM) 4.99%
0.0907 µM: IC50 [5]
0.106 µM: IC50 [1]

CC[C@@]1(O)C(=O)OCc2c1cc1n(c2=O)Cc2cc3c(CN(C)C)c(O)ccc3nc2-1 + NC1CC1c1ccc(-c2cccc(O)c2)cc1
0.000791 µM: IC50 [4]
active: viability, T/C (second compound 0.1 µM, first compound 0.00316 µM) 4.42% | viability, T/C (second compound 0.1 µM, first compound 0.01 µM) 3.26% | viability, T/C (second compound 0.1 µM, first compound 0.0316 µM) 2.54% | viability, T/C (second compound 0.1 µM, first compound 0.1 µM) 1.68% | viability, T/C (second compound 0.316 µM, first compound 0.00316 µM) 4.34% | viability, T/C (second compound 0.316 µM, first compound 0.01 µM) 2.93% | viability, T/C (second compound 0.316 µM, first compound 0.0316 µM) 1.9% | viability, T/C (second compound 0.316 µM, first compound 0.1 µM) 1.67% | viability, T/C (second compound 1 µM, first compound 0.00316 µM) 5.01% | viability, T/C (second compound 1 µM, first compound 0.01 µM) 3.22% | viability, T/C (second compound 1 µM, first compound 0.0316 µM) 2.56% | viability, T/C (second compound 1 µM, first compound 0.1 µM) 1.7% | viability, T/C (second compound 3.16 µM, first compound 0.00316 µM) 4.57% | viability, T/C (second compound 3.16 µM, first compound 0.01 µM) 2.89% | viability, T/C (second compound 3.16 µM, first compound 0.0316 µM) 1.84% | viability, T/C (second compound 3.16 µM, first compound 0.1 µM) 1.56% | viability, T/C (second compound 10 µM, first compound 0.00316 µM) 3.84% | viability, T/C (second compound 10 µM, first compound 0.01 µM) 3.11% | viability, T/C (second compound 10 µM, first compound 0.0316 µM) 2.42% | viability, T/C (second compound 10 µM, first compound 0.1 µM) 1.6%
0.00093 µM: IC50 [1]
0.000592 µM: IC50 [5]
inactive: viability, T/C (second compound 0.1 µM, first compound 0.000316 µM) 92.2% | viability, T/C (second compound 0.1 µM, first compound 0.001 µM) 47.2% | viability, T/C (second compound 0.316 µM, first compound 0.000316 µM) 97.2% | viability, T/C (second compound 0.316 µM, first compound 0.001 µM) 52.5% | viability, T/C (second compound 1 µM, first compound 0.000316 µM) 92.2% | viability, T/C (second compound 1 µM, first compound 0.001 µM) 40.2% | viability, T/C (second compound 3.16 µM, first compound 0.000316 µM) 91.8% | viability, T/C (second compound 3.16 µM, first compound 0.001 µM) 39.3% | viability, T/C (second compound 10 µM, first compound 0.000316 µM) 72.7% | viability, T/C (second compound 10 µM, first compound 0.001 µM) 31.1%
0.00106 µM: IC50 [2]
0.000805 µM: IC50 [3]

NC1CC1c1ccc(-c2cccc(O)c2)cc1 (centres undefined)
inactive: viability, T/C (compound 0.1 µM) 133%
> 10 µM: IC50 (compound alone, run of 02/01/2022)

CC1(C)CCC(CN2CCN(c3ccc(C(=O)NS(=O)(=O)c4ccc(NCC5CCOCC5)c([N+](=O)[O-])c4)c(Oc4cnc5[nH]ccc5c4)c3)CC2)=C(c2ccc(Cl)cc2)C1
10.2% and 0.17%: viability, T/C (compound 10 µM)
inactive: viability, T/C (compound 0.0316 µM) 121% and 95.1% | viability, T/C (compound 0.1 µM) 109% and 91% | viability, T/C (compound 0.316 µM) 89.3% and 82% | viability, T/C (compound 1 µM) 72.6% and 61.4% | viability, T/C (compound 3.16 µM) 63.1% and 19.3%
3.31 µM and 1.32 µM: IC50 (curve of compound)
